Data set [1] has as its system MEF. Nature of the data set: Neuro-regenerative activity in NMRI mouse MEF cells transfected with human DCX promoter-driven firefly luciferase reporter assessed as induction of neuronal differentiation at 10 uM incubated for 3 days by luciferase reporter gene based luminescence analysis. It is filed as functional, cell-based. To be noted: time 3.0 day. In general terms: A reporter such as luciferase makes a cellular process visible.

Data set [2] has as its system MEF. The experiment in a line: Cytotoxicity against NMRI mouse MEF cells assessed as effect on cell proliferation by measuring effect on renilla activity at 10 uM incubated for 3 days by luminescence based analysis. To be noted: 72 h, time 3 day.
Data set [3] relates to MEF. The experiment in a line: Neuro-regenerative activity in NMRI mouse MEF cells transfected with human DCX promoter-driven firefly luciferase reporter assessed as induction of neuronal differentiation at 10 uM incubated for 3 days by luciferase reporter gene based luminescence analysis relative to control. It is filed as functional. Conditions: time 3 day.

The source made the active and inactive calls. The rule behind the calls is not given here.

For `COc1cc2c(c(O)c1C(=O)/C=C/c1ccc(O)cc1)CCC(C)(C)O2`, the outcome in the data set on MEF [1] was Active.
On to `COc1cc2c(c(O)c1C(=O)/C=C/c1ccc3c(c1)OCO3)C=CC(C)(C)O2`, for which the outcome with MEF [1] was Active.
On to `COc1ccc(/C=C/C(=O)c2c(OC)cc3c(c2O)C=CC(C)(C)O3)cc1`, for which, in the data set on MEF [1], the outcome was Active.
Turning to `CC1(C)C=Cc2c(cc3c(c2O)C(=O)CC(c2ccc(O)cc2)O3)O1` (stereo not drawn), in the data set with MEF [1], the result was Active.
With `COc1cc2c(c(O)c1C(=O)/C=C/c1ccc(O)cc1)C=CC(C)(C)O2` [XANTHOHUMOL C], the Activity entry in the data set with MEF [2] is “Non-Toxic”. Moreover, the Ratio in the data set with MEF [3] was 1.56.
In the case of `CC1(C)C=Cc2c(cc(O)c3c2OC(c2ccc(O)cc2)CC3=O)O1` (stereo not drawn), the result in the data set on MEF [1] was Active.
Take `COc1cc2c(c3c1C(=O)CC(c1ccc(O)cc1)O3)C=CC(C)(C)O2` (stereo not drawn): the result in the data set with MEF [1] was Active.
Take `COc1cc(O)c(CC=C(C)C)c(O)c1C(=O)/C=C/c1ccc(O)cc1` [XANTHOHUMOL]: the Activity result in the data set with MEF [2] is recorded as “Toxic”. In the data set with MEF [3], the Ratio was found to be 5.55.
With `COc1cc2c(c(O)c1C(=O)/C=C/c1ccc(O)c(O)c1)C=CC(C)(C)O2`, the Activity result in the data set with MEF [2] was “Non-Toxic”. Further, in the data set on MEF [1], the outcome was Active.
With `COc1cc2c(c(O)c1C(=O)/C=C/c1ccc(O)cc1)C=CC(C)(CCC=C(C)C)O2` (stereo not drawn), the outcome in the data set on MEF [1] was inactive.

For the origin of these results see ChEMBL document CHEMBL4831536, “Neuroregenerative Potential of Prenyl- and Pyranochalcones: A Structure-Activity Study” (J Nat Prod, 2021).
